Counter-ions that a name gives are not always drawn. Marks after values point to notes of the source that are not given here.
tested on: 3-MPA-Induced Seizures; test: Antagonism of 3-MPA-induced seizures; type: in vivo; details: mg/kg i.v. of 3-MPA required to evoke a seizure response; test drug 30 mg/kg p.o. 60 min before 3-MPA; male T/O mice
Description: Several animal seizure models are available for the screening and characterisation of anticonvulsant (antiepileptic) drugs, Most models employ a chemical convulsant to induce seizures and the anticonvulsant potencies of novel compounds are measured in terms of their ability to increase the dose of convulsant required to induce a seizure response (or to prolong the latency to seizure onset following a bolus dose of the convulsant). Most chemical convulsants work by blocking the neurotran […] function of gamma-aminobutyric acid (GABA), the predominant inhibitory neurotransmitter in the mammalian brain. This can be achieved by blocking the postsynaptic action of GABA using pentylenetetrazol or bicuculline, or via a presynaptic action using a GABA synthesis inhibitor to decrease GABA release into the synapse. […] Male albino […] (obtained from Tuck) weighing 28-40 g were used in these studies. […] Immediately following 3-MPA administration, each mouse was placed individually into a cage for observation. The seizure response of each animal was scored quantally as present or absent (response or non-response) during the 5 min period immediately following 3-MPA administration. A seizure response was defined as the onset of the initial clonic phase of the seizure (abrupt loss of righting reflex accompanied by vocalisation). The seizure threshold (in terms of mg/kg i.v. of 3-MPA required to evoke a seizure response) was determined in each treatment group by a sequential up/down method followed by modified probit analysis of the quantal data. […] In these studies, 3-MPA was obtained from Sigma. […] Drugs were administered in a dose volume of 10 ml/kg body weight.

Row | Compound | SC = Seizure threshold after treatment with test drug
1 | C=CCNC(=O)N1CC(c2ccc(Cl)cc2)C1 [Example 1] | 42.7 mg/kg
2 | C=CCNC(=O)N1CC(c2ccc(C(C)(C)C)cc2)C1 [Example 2, 3-(4-tert-Butylphenyl)-N-(2-propenyl)azeddine-1-carboxamide] | 24.2 mg/kg
3 | C#CCNC(=O)N1CC(c2ccc(C(C)(C)C)cc2)C1 [Example 3, 3-(4-tert-Butylphenyl)-N-(2-propynyl)azetidine-1-carboxamide] | 21.4 mg/kg
4 | C[C@@H](O)CNC(=O)N1CC(c2ccc(C(C)(C)C)cc2)C1 [Example 4, (R)-3-(4-tert-Butylphenyl)-N-(2-hydroxypropyl)azetidine-1-carboxamide] | 27.3 mg/kg
5 | C=CCNC(=O)N1CC(c2ccc(F)cc2)C1 [Example 5, 3-(4-Fluoropbenyl)-N-(2-propenyl)azetidine-1-carboxamide] | 32.4 mg/kg
6 | C#CCNC(=O)N1CC(c2ccc(F)cc2)C1 [Example 6, 3-(4-Fluorophenyl)-N-(2-propynyl)azetddine-1-carboxamide] | 59.5 mg/kg
7 | C[C@@H](O)CNC(=O)N1CC(c2ccc(F)cc2)C1 [Example 7, (R)-3-(4-Fluorophenyl)-N-(2-hydroxypropyl)azetidine-1-carboxamide] | 54.4 mg/kg
8 | C#CCNC(=O)N1CC(c2ccc(Cl)cc2)C1 [Example 8, (3-(4-Chlorophenyl)-N-2-propynyl)azetidine-1-carboxamide] | 100 mg/kg
9 | C[C@@H](O)CNC(=O)N1CC(c2ccc(Cl)cc2)C1 [Example 9, (R)-3-(4-Chlorophenyl)-N-(2-hydroxypropyl)azetidine-1-carboxiamide] | 29.7 mg/kg
10 | C[C@H](O)CNC(=O)N1CC(c2ccc(F)cc2)C1 [Example 10] | 95.8 mg/kg
11 | C[C@H](O)CNC(=O)N1CC(c2ccc(C(F)(F)F)cc2)C1 [Example 15] | 58.4 mg/kg
12 | C#CCNC(=O)N1CC(c2cccc(C(F)(F)F)c2)C1 [Example 19, 3-(3-(Trifluoromethyl)phenyl)-N-(2-propynyl)azetidine-1-carboxamide] | >200.0^a mg/kg

tested on: not given; test: not given; details: not given

Row | Compound | melting point
13 | C#CCNC(=O)N1CC(c2ccc(C(C)(C)C)cc2)C1 [Example 3, 3-(4-tert-Butylphenyl)-N-(2-propynyl)azetidine-1-carboxamide] | 141 °C
14 | C[C@@H](O)CNC(=O)N1CC(c2ccc(F)cc2)C1 [Example 7, (R)-3-(4-Fluorophenyl)-N-(2-hydroxypropyl)azetidine-1-carboxamide] | 104 to 105 °C
15 | C[C@@H](O)CNC(=O)N1CC(c2ccc(F)c(F)c2)C1 [Example 21] | 108 to 109 °C
16 | C[C@@H](O)CNC(=O)N1CC(c2ccc(F)c(Cl)c2)C1 [Example 23] | 83 to 84 °C
17 | C#CCNC(=O)N1CC(c2ccc(F)c(F)c2)C1 [Example 25] | 123 °C
18 | C#CCNC(=O)N1CC(c2ccc(F)c(Cl)c2)C1 [Example 26] | 133 °C
19 | C[C@@H](O)CNC(=O)N1CC(c2ccc(F)c(C(F)(F)F)c2)C1 [Example 27] | 69 to 71 °C
20 | C#CCNC(=O)N1CC(c2ccc(F)c(C(F)(F)F)c2)C1 [Example 28] | 119 °C
21 | CC(C)(O)CNC(=O)N1CC(c2cccc(Cl)c2)C1 [Example 29] | 102 °C
22 | C#CCNC(=O)N1CC(c2ccc(Cl)c(F)c2)C1 [Example 31] | 132 °C
23 | C[C@@H](O)CNC(=O)N1CC(c2ccccc2C(F)(F)F)C1 [Example 32] | 89 °C
24 | C#CCNC(=O)N1CC(c2ccccc2C(F)(F)F)C1 [Example 33] | 101 °C
25 | C[C@@H](O)CNC(=O)N1CC(c2ccccc2Cl)C1 [Example 34] | 109 °C
26 | C[C@@H](O)CNC(=O)N1CC(c2cccc(Cl)c2Cl)C1 [Example 35] | 111 °C
27 | C[C@@H](O)CNC(=O)N1CC(c2ccc(F)cc2F)C1 [Example 36] | 88 to 89 °C
28 | NC(=O)N1CC(c2cccc(C(F)(F)F)c2)C1 [Example 37] | 198 °C
29 | COCC(C)NC(=O)N1CC(c2ccc(Cl)cc2)C1 (stereo not shown) [Example 38] | 110 °C
30 | C[C@H](CO)NC(=O)N1CC(c2ccc(Cl)cc2)C1 [Example 39] | 71 to 75 °C
31 | C[C@H](CO)NC(=O)N1CC(c2ccc(Cl)cc2)C1 [Example 40] | 82 to 85 °C
32 | CC(C)(CO)NC(=O)N1CC(c2ccc(Cl)cc2)C1 [Example 41] | 134 to 135 °C
33 | C[C@H](NC(=O)N1CC(c2ccc(Cl)cc2)C1)[C@H](O)c1ccccc1 [Example 42] | 120 to 122 °C
34 | O=C(NCCc1ccccn1)N1CC(c2ccc(Cl)cc2)C1 [Example 43] | 125 °C
35 | NCC1CCN(C(=O)N2CC(c3ccc(Cl)cc3)C2)CC1 [Example 44] | 137 to 138 °C
36 | CCCNC(=O)N1CC(c2ccc(F)cc2)C1 [Example 45] | 117 to 118.5 °C
37 | C=CCNC(=O)N1CC(c2ccc(C(F)(F)F)cc2)C1 [Example 46] | 136 to 137.5 °C
38 | CCCNC(=O)N1CC(c2ccc(C(F)(F)F)cc2)C1 [Example 47] | 127 to 128.5 °C
39 | C[C@H](O)CNC(=O)N1CC(c2cccc(F)c2)C1 [Example 48] | 79.5 to 80 °C
40 | C[C@H](O)CNC(=O)N1CC(c2cc(Cl)cc(Cl)c2)C1 [Example 49] | 110 to 111 °C
41 | C[C@H](O)CNC(=O)N1CC(c2cccc(Cl)c2)C1 [Example 51] | 78 to 80 °C

Next, values leading:

Row | melting point | Compound
42 | 183 to 184 °C | CC(C)(N)CNC(=O)N1CC(c2ccc(Cl)cc2)C1 (as salt: HCl) [Example 79]
43 | 77 to 79 °C | CC[C@@H](O)CNC(=O)N1CC(c2ccc(F)cc2)C1 (hydrate or solvate) [Example 75]
44 | 64 to 66 °C | C=CCNC(=O)N1CC(c2cccc(C(F)(F)F)c2)C1 [Example 52]
45 | 65 to 66 °C | C=CCNC(=O)N1CC(c2cccc(Cl)c2)C1 [Example 53]
46 | 62.5 to 63.5 °C | C=CCNC(=O)N1CC(c2cccc(F)c2)C1 [Example 54]
47 | 77 to 78.5 °C | CC(C)(O)CNC(=O)N1CC(c2ccc(F)cc2)C1 [Example 55]
48 | 94.5 to 96 °C | CC(C)(O)CNC(=O)N1CC(c2cccc(C(F)(F)F)c2)C1 [Example 56]
49 | 99 to 101 °C | O=C(NCCO)N1CC(c2ccc(F)cc2)C1 [Example 57]
50 | 106 to 107 °C | C[C@@H](O)CNC(=O)N1CC(c2ccc(C(F)(F)F)cc2F)C1 [Example 58]
51 | 90 to 105 °C (dec.) | C#CCNC(=O)N1CC(c2cccc(Cl)c2)C1 [Example 59]
52 | 108.5 to 110 °C | C#CCNC(=O)N1CC(c2cc(F)cc(Cl)c2)C1 [Example 61]
53 | 143 to 144 °C | C[C@@H](O)CNC(=O)N1CC(c2ccc3ccccc3c2)C1 [Example 63]
54 | 110 to 111.5 °C | CC(C)(O)CNC(=O)N1CC(c2ccc(F)c(C(F)(F)F)c2)C1 [Example 64]
55 | 90 to 93 °C | O=C(NCCCO)N1CC(c2ccc(F)cc2)C1 [Example 65]
56 | 114 to 115.5 °C | CC(C)(O)CNC(=O)N1CC(c2ccc(Cl)cc2)C1 [Example 66]
57 | 205 to 208.5 °C | NC(=O)N1CC(c2ccc(F)cc2)C1 [Example 67]
58 | 112.5 to 113.5 °C | CC(C)(O)CNC(=O)N1CC(c2cc(F)cc(Cl)c2)C1 [Example 68]
59 | 198 to 200.5 °C | NC(=O)N1CC(c2cc(F)cc(Cl)c2)C1 [Example 69]
60 | 81 to 82.5 °C | C[C@@H](O)CNC(=O)N1CC(c2cc(F)cc(Cl)c2)C1 [Example 70]
61 | 92.5 to 94 °C | CC(O)CNC(=O)N1CC(c2ccc(Cl)cc2)C1 (stereo not shown) [Example 71]
62 | 101.5 to 110.25 °C | C#CCNC(=O)N1CC(c2cccc(F)c2)C1 [Example 72]
63 | 100 to 102 °C | CCC(C)NC(=O)N1CC(c2ccc(F)cc2)C1 (stereo not shown) [Example 74]
64 | 141 to 142.5 °C | O=C(N[C@@H]1CCCC[C@H]1O)N1CC(c2ccc(F)cc2)C1 [Example 76]
65 | 118 to 120 °C | C[C@@H](CO)NC(=O)N1CC(c2ccc(F)cc2)C1 [Example 77]
66 | 90 to 92 °C | O=C(NC[C@H](O)CO)N1CC(c2ccc(Cl)cc2)C1 [Example 78]
67 | 139.5 to 141 °C | CC(=O)CNC(=O)N1CC(c2ccc(C(F)(F)F)cc2)C1 [Example 80]
68 | 77.5 to 79 °C | C[C@@H](O)CNC(=O)N1CC(c2cccc(F)c2)C1 [Example 83]
69 | 123 to 124 °C | CC(C)(O)CNC(=O)N1CC(c2ccc(C(F)(F)F)cc2)C1 [Example 84]

tested on: elevated zero-maze model of anxiety; test: not given; details: dose of 100 mg/Kg; orally by gavage 1 hour prior to zero-maze testing

Row | Compound | anxiolytic activity (increase in the frequency of head dips)
70 | C#CCNC(=O)N1CC(c2ccc(F)cc2)C1 [Example 6, 3-(4-Fluorophenyl)-N-(2-propynyl)azetddine-1-carboxamide] | effective
